Experimental data published in PubChem BioAssay AID248 (DTP/NCI, 2004).
Several values for one entry are separate records, joined by “and”; a condition that tells them apart may be missing. Equal values may be shown once. Toxic doses and inconclusive results are not listed. Cut-off read from the data, not from the text of the source: active = T/C of 150% or more; inactive = T/C below 125%.

Tested on: L1210 leukemia ip in BDF1 mice, survival T/C
Experiment: NCI In Vivo Anticancer Drug Screen. Data for tumor model L1210 Leukemia (intraperitoneal) in B6D2F1 (BDF1) mice
Details: endpoint: mean survival time, higher = longer survival
Method in brief: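 Transplanted-tumor mice were given test agent; controls received vehicle only. Survival readings from the two groups were divided (treated over control).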

[1] = dose: 100.0 mg/kg/injection, schedule: Q01DX009 (ip), vehicle: saline with Tween-80
[2] = dose: 200.0 mg/kg/injection, schedule: Q01DX009 (ip), vehicle: saline with Tween-80
[3] = dose: 400.0 mg/kg/injection, schedule: Q01DX009 (ip), vehicle: saline with Tween-80
[4] = dose: 25.0 mg/kg/injection, schedule: Q04DX003 (ip), vehicle: saline with Tween-80
[5] = dose: 50.0 mg/kg/injection, schedule: Q04DX003 (ip), vehicle: saline with Tween-80
[6] = dose: 100.0 mg/kg/injection, schedule: Q01DX001 (ip), vehicle: saline
[7] = dose: 100.0 mg/kg/injection, schedule: Q04DX003 (ip), vehicle: saline
[8] = dose: 200.0 mg/kg/injection, schedule: Q04DX003 (ip), vehicle: saline
[9] = dose: 100.0 mg/kg/injection, schedule: Q04DX003 (ip), vehicle: saline with Tween-80

Measured: T/C

CCO/N=C(/C)C(C)SC#N (configuration not stated)
inactive: dose: 10.0 mg/kg/injection, schedule: Q01DX001 (ip), vehicle: saline 97 % of control | dose: 20.0 mg/kg/injection, schedule: Q01DX001 (ip), vehicle: saline 105 % of control

[N-]=[N+]=C1C(=O)NC(=O)NC1C(=O)O (configuration not stated)
inactive: dose: 75.0 mg/kg/injection, schedule: Q01DX009 (ip), vehicle: Klucel (hydroxypropylcellulose) (HPC) 103 % of control | dose: 100.0 mg/kg/injection, schedule: Q01DX001 (ip), vehicle: Klucel (hydroxypropylcellulose) (HPC) 96 % of control | dose: 150.0 mg/kg/injection, schedule: Q01DX009 (ip), vehicle: Klucel (hydroxypropylcellulose) (HPC) 119 % of control | dose: 200.0 mg/kg/injection, schedule: Q01DX001 (ip), vehicle: Klucel (hydroxypropylcellulose) (HPC) 100 % of control | dose: 300.0 mg/kg/injection, schedule: Q01DX009 (ip), vehicle: Klucel (hydroxypropylcellulose) (HPC) 107 % of control | dose: 400.0 mg/kg/injection, schedule: Q01DX001 (ip), vehicle: Klucel (hydroxypropylcellulose) (HPC) 86 % of control

CC(C)=CC(=O)O
inactive: [1] 95 % of control | [2] 98 % of control | [3] 104 % of control

CC1CN1S(=O)(=O)N1CC1C (configuration not stated)
inactive: dose: 50.0 mg/kg/injection, schedule: Q01DX001 (ip), vehicle: carboxymethylcellulose (CMC) 111 % of control

Nc1nc(N)c2c(n1)CCP(c1ccccc1)C2 (configuration not stated)
inactive: dose: 12.5 mg/kg/injection, schedule: Q04DX003 (ip), vehicle: saline with Tween-80 98 % of control | [4] 96 % of control | [5] 95 % of control

COC1OC(CO)C2OC(C)(C)OC2C1O (configuration not stated)
inactive: dose: 100.0 mg/kg/injection, schedule: Q04DX002 (ip), vehicle: saline 93 % of control | dose: 200.0 mg/kg/injection, schedule: Q04DX002 (ip), vehicle: saline 101 % of control | dose: 400.0 mg/kg/injection, schedule: Q04DX002 (ip), vehicle: saline 104 % of control

CC(C)(C)OC(=O)CC(O)c1ccccc1 (configuration not stated)
inactive: dose: 50.0 mg/kg/injection, schedule: Q01DX001 (ip), vehicle: saline 94 % of control | [6] 102 % of control | dose: 200.0 mg/kg/injection, schedule: Q01DX001 (ip), vehicle: saline 105 % of control | dose: 400.0 mg/kg/injection, schedule: Q01DX001 (ip), vehicle: saline 102 % of control

CN(C)C(CCc1ccccc1)C(=O)O (configuration not stated)
inactive: dose: 100.0 mg/kg/injection, schedule: Q01DX009 (ip), vehicle: saline sonified 102 % of control | [7] 102 % of control | dose: 200.0 mg/kg/injection, schedule: Q01DX009 (ip), vehicle: saline sonified 95 % of control | [8] 109 % of control | dose: 400.0 mg/kg/injection, schedule: Q01DX009 (ip), vehicle: saline sonified 101 % of control | dose: 400.0 mg/kg/injection, schedule: Q04DX003 (ip), vehicle: saline 109 % of control

CC1(C)CC(=O)CC(C)(C)N1
inactive: [7] 107 % of control | [8] 100 % of control

CCOc1ccc(N=Cc2cccc([N+](=O)[O-])c2)cc1
inactive: dose: 100.0 mg/kg/injection, schedule: Q01DX001 (ip), vehicle: saline with Tween-80 103 % of control | [1] 107 % of control and 90 % of control | dose: 200.0 mg/kg/injection, schedule: Q01DX001 (ip), vehicle: saline with Tween-80 90 % of control | [2] 97 % of control and 90 % of control | dose: 400.0 mg/kg/injection, schedule: Q01DX001 (ip), vehicle: saline with Tween-80 99 % of control | [3] 100 % of control and 91 % of control

O=[N+]([O-])c1cccc(C(O)C=C(C(F)(F)F)C(F)(F)F)c1 (configuration not stated)
inactive: dose: 25.0 mg/kg/injection, schedule: Q01DX009 (ip), vehicle: saline with Tween-80 100 % of control | dose: 50.0 mg/kg/injection, schedule: Q01DX009 (ip), vehicle: saline with Tween-80 98 % of control | [1] 98 % of control | [9] 103 % of control

CCCC(P(c1ccccc1)c1ccccc1)P(=O)(c1ccccc1)c1ccccc1 (configuration not stated)
inactive: dose: 100.0 mg/kg/injection, schedule: Q04DX002 (ip), vehicle: saline with Tween-80 94 % of control | dose: 200.0 mg/kg/injection, schedule: Q04DX002 (ip), vehicle: saline with Tween-80 94 % of control | dose: 400.0 mg/kg/injection, schedule: Q04DX002 (ip), vehicle: saline with Tween-80 94 % of control

CSC(Cl)=C(Cl)Cl
inactive: [4] 101 % of control | [5] 101 % of control | [6] 90 % of control | [9] 97 % of control
